Experimental data published in US20240284907A1, “NOVEL DERIVATIVES OF NON-CODED AMINO ACIDS AND THEIR USE AS HERBICIDES” (FortePhest LTD., priority 2021, published 2024).

These molecules were tested on Seeds of Lettuce R. (Super-Jericho) (assay: Filter paper bioassay with lettuce seeds: germination and early plant development, Minimal Effective Concentration (MEC)). Conditions: lettuce seeds on filter paper, 0 to 1 mmol/l, visually assessed after 6 days.
Format: in vivo
Excerpt: Materials: Seeds of Lettuce R. (Super-Jericho, non-sterilized) were obtained from Ben Shahar Moshe Ltd., 99% purity. The test compounds listed in the Table 2 below were synthetized de novo or purchased from different vendors.
Filter Paper Bioassays with Lettuce seeds: The protocol is following Bertin et al. 2009 and Movellan et al. 2014 with specified modifications as described below.
Seeds were placed on Whatman no. 1 filter paper (Whatman, Middlesex, U.K.) in Petri dishes (10 seeds per plate) with 2.0 ml of aqueous solution of a test material in concentration ranged from 0 (control) to 1 mmol/l were placed in a tray tilted at 45[…]. The trays were kept in dark for 48 hours and then transferred to the growth chamber with 6/18 dark/light cycle for 4 days. Each experiment was performed at least with two repeats.
The development of plants' radicle and shoots were visually assessed 6 days after the beginning of the test to determine Minimal Effective Concentration (MEC) of a test material. In the context of the invention, MEC is defined as the lowest concentration level of a test material that caused deviation (absence of germination or malformation of radicle or shoots) from the plant's development in the Control group.

Row | SMILES | Score (activity score of Minimal Effective Concentration, MEC)
1 | O=C(O)C(=O)/C=C/c1cc(Cl)sc1Cl [compound 5620, (3E)-4-(2,5-dichlorothiophen-3-yl)-2-oxobut-3-enoic acid] | Weak (Higher than 0.1 mM)
2 | O=C(O)CCN1CCN(Cc2cc(Cl)sc2Cl)CC1 [compound 5626, 3-{4-[(2,5-dichlorothiophen-3-yl)methyl]piperazin-1-yl}propanoic acid] | Weak (Higher than 0.1 mM)
3 | O=C(O)CCC(F)(F)c1cc(Cl)sc1Cl [compound 5632, 4-(2,5-dichlorothiophen-3-yl)-4,4-difluorobutanoic acid] | Moderate (0.1 mM)
4 | O=C(O)C(=O)c1c(Cl)sc(Cl)c1Cl [compound 5645, 2-oxo-2-(245-trichlorothiophen-3-yl)acetic acid] | Strong (0.01 mM)
5 | O=C(O)C(F)(F)c1ccc2[nH]c(=O)[nH]c2c1 [compound 5654, 2,2-difluoro-2-(2-oxo-23-dihydro-1H-1,3-benzodiazol-5-yl)acetic acid] | Weak (Higher than 0.1 mM)
6 | CCOC(=O)C(Br)c1nc(Br)sc1C (stereo not drawn) [compound 5662, ethyl 2-bromo-2-(2-bromo-5-methyl-1,3-thiazol-4-yl)acetate] | Moderate (0.1 mM)
7 | Cl.Nc1nc2c(s1)CCCC2C(=O)O (stereo not drawn) [compound 5673, 2-amino-4567-tetrahydro-1,3-benzothiazole-4-carboxylic acid hydrochloride] | <moderate
8 | C[N+](C)(C)CCc1nc(Cl)sc1Cl [compound 5680, 2-(2,5-dichloro-1,3-thiazol-4-yl)-NNN-trimethylethan-1-aminium] | Weak (Higher than 0.1 mM)
9 | O=C(O)c1cnc2sc(Cl)nc2c1 [compound 5683, 2-chloro[1,3]thiazolo[54-b]pyridine-6-carboxylic acid] | Moderate (0.1 mM)
10 | Clc1cc(CCNCc2ccccc2)c(Cl)s1 [compound 5694, benzyl[2-(2,5-dichlorothiophen-3-yl)ethyl]amine] | Moderate (0.1 mM)
11 | Nc1nc(C(F)(F)c2ccccc2)cs1 [compound 5697, 4-[difluoro(phenyl)methyl]-1,3-thiazol-2-amine] | Strong (0.01 mM)
12 | NNC(=O)Cc1csc(Cl)n1 [compound 5704, 2-(2-chloro-1,3-thiazol-4-yl)acetohydrazide] | Moderate (0.1 mM)
13 | O=C(Cc1ccccc1)NCCc1cc(Cl)sc1Cl [compound 5708, N-[2-(2,5-dichlorothiophen-3-yl)ethyl]-2-phenylacetamide] | Moderate (0.1 mM)
14 | CNNC(=O)Cc1csc(Cl)n1 [compound 5715, 2-(2-chloro-1,3-thiazol-4-yl)-N′-methyl acetohydrazide] | Moderate (0.1 mM)
15 | O=C(O)Cc1csc(-c2ncc(Cl)cc2F)n1 [compound 5716, 2-[2-(5-chloro-3-fluoropyridin-2-yl)-1,3-thiazol-4-yl]acetic acid] | Moderate (0.1 mM)
16 | O=C(O)C(F)(F)c1csc([N+](=O)[O-])n1 [compound 5719, 2,2-difluoro-2-(2-nitro-1,3-thiazol-4-yl)acetic acid] | Moderate (0.1 mM)
17 | O=C(O)C(F)(F)c1sc(Cl)nc1Cl [compound 5722, (24-dichloro-1,3-thiazol-5-yl)(difluoro)acetic acid] | Weak (Higher than 0.1 mM)
18 | CS(=O)(=O)NCCNCCc1cc(Cl)sc1Cl [compound 5723, N-(2-{[2-(2,5-dichlorothiophen-3-yl)ethyl]amino}ethyl)methane sulfonamide] | Strong (0.01 mM)
19 | CC(=O)C1CN(CCc2cc(Cl)sc2Cl)CCC1=O (stereo not drawn) [compound 5743, 3-acetyl-1-[2-(2,5-dichlorothiophen-3-yl)ethyl]piperidin-4-one] | Moderate (0.1 mM)
20 | O=C(O)C1Cc2nnsc2S1 (stereo not drawn) [compound 5750, 5H,6H-thieno[3,2-d][1,2,3]thiadiazole-5-carboxylic acid] | Moderate (0.1 mM)
21 | O=C(O)C(F)(F)c1csc(-c2ccc(C(F)(F)F)cc2F)n1 [compound 5763, 2,2-difluoro-2-{2-[2-fluoro-4-(trifluoromethyl)phenyl]-1,3-thiazol-4-yl}acetic acid] | Moderate (0.1 mM)
22 | O=C(O)C(F)(F)c1cscc1C(F)(F)F [compound 5764, difluoro[4-(trifluoromethyl)thiophen-3-yl]acetic acid] | Strong (0.01 mM)
23 | NC(N)=NCCCc1cc(Cl)sc1Cl [compound 5765, N″-[3-(2,5-dichlorothiophen-3-yl)propyl]guanidine] | Strong (0.01 mM)

Row | SMILES | Score (activity score of Minimal Effective Concentration, MEC)
24 | N=C(NCCc1cc(Cl)sc1Cl)Nc1ccc(O)cc1 [compound 5766, N-[2-(2,5-dichlorothiophen-3-yl)ethyl]-N′-(4-hydroxyphenyl)guanidine] | Moderate (0.1 mM)
25 | O=C([O-])Cc1cnsn1.[Li+] [compound 5776, lithium(1+) 2-(1,2,5-thiadiazol-3-yl)acetate[Li+]] | Moderate (0.1 mM)
26 | Cc1nsnc1CC(=O)O [compound 5785, (4-methyl-1,2,5-thiadiazol-3-yl)acetic acid] | Moderate (0.1 mM)
27 | CCOC(=O)Cc1csc(Cl)c1 [compound 5796, ethyl(5-chlorothiophen-3-yl)acetate] | Moderate (0.1 mM)
28 | O=C(O)C(F)(F)c1nnn[nH]1 [compound 5799, difluoro(1H-tetrazol-5-yl)acetic acid] | Moderate (0.1 mM)
29 | O=C(Cc1csc(Cl)n1)OCC(=O)c1cccc(Br)n1 [compound 5801, 2-(6-bromopyridin-2-yl)-2-oxoethyl 2-(2-chloro-1,3-thiazol-4-yl)acetate] | Moderate (0.1 mM)
30 | NC(=O)Nc1ccnc(Br)c1 [compound 6602, (2-bromopyridin-4-yl)urea] | Weak (Higher than 0.1 mM)
31 | O=C(O)/C=C/c1cccc(Cl)n1 [compound 6603, (2E)-3-(6-chloropyridin-2-yl)prop-2-enoic acid] | Weak (Higher than 0.1 mM)
32 | O=C(O)/C=C/c1cccnc1Cl [compound 6604, (2E)-3-(2-chloropyridin-3-yl)prop-2-enoic acid] | Moderate (0.1 mM)
33 | O=C(O)/C=C/c1cccnc1Br [compound 6605, (2E)-3-(2-bromopyridin-3-yl)prop-2-enoic acid] | Strong (0.01 mM)
34 | O=C(O)/C=C/c1ccnc(Br)c1 [compound 6606, (2E)-3-(2-bromopyridin-4-yl)prop-2-enoic acid] | Weak (Higher than 0.1 mM)
35 | O=C(Nc1ccnc(Br)c1)c1ccnc(Br)c1 [compound 6607, 2-bromo-N-(2-bromopyridin-4-yl)pyridine-4-carboxamide] | Strong (0.01 mM)
36 | O=C(O)C(=O)c1ccc(Br)nc1 [compound 6609, 2-(6-bromopyridin-3-yl)-2-oxoacetic acid] | Weak (Higher than 0.1 mM)
37 | O=C(O)C(=O)Cc1ccnc(Br)c1 [compound 6611, 3-(2-bromopyridin-4-yl)-2-oxopropanoic acid] | Weak (Higher than 0.1 mM)
38 | O=C(O)C(F)(F)c1ccncc1 [compound 6614, 2,2-difluoro-2-(pyridin-4-yl)acetic acid] | Weak (Higher than 0.1 mM)
39 | O=C(O)Cc1ccc(Oc2ccncc2)cc1 [compound 6615, 2-[4-(pyridin-4-yloxy)phenyl]acetic acid] | Weak (Higher than 0.1 mM)
40 | NC(=O)CC(N)c1ccnc(Br)c1 (stereo not drawn) [compound 6616, 3-amino-3-(2-bromopyridin-4-yl)propanamide] | Weak (Higher than 0.1 mM)
41 | O=C(NCC(F)(F)C(=O)O)c1ccnc(Br)c1 [compound 6618, 3-[(2-bromopyridin-4-yl)formamido]-2,2-difluoropropanoic acid] | Strong (0.01 mM)
42 | O=C(O)C(F)(F)c1ncccn1 [compound 6619, 2,2-difluoro-2-(pyrimidin-2-yl)acetic acid] | Weak (Higher than 0.1 mM)
43 | O=C(O)c1ccc2ccnc(Cl)c2c1 [compound 6627, 1-chloroisoquinoline-7-carboxylic acid] | Moderate (0.1 mM)
44 | O=C(O)/C=C/c1ccnc(Br)c1[N+](=O)[O-] [compound 6631, (2E)-3-(2-bromo-3-nitropyridin-4-yl)prop-2-enoic acid] | Moderate (0.1 mM)
45 | Cl.N=C(N)c1cccc(Br)n1 [compound 6634, 6-bromopyridine-2-carboximidamide hydrochloride[HCl]] | Weak (Higher than 0.1 mM)
